Reference: patent publication US9051310B2, “Nicotinamide derivative or salt thereof” (FUJIFILM Corporation, priority 2011, dated 2015)

Assays:
[1] = target: T1, glutathione S-transferase (GST)-linked full-length human Syk protein (Homo sapiens, UniProt P43405); experiment: Syk enzyme assay; assay type: biochemical; conditions: 0.83 nM Syk, time-resolved fluorescence; read-out: IC50 of Syk-inhibitory activity
T1 construct: glutathione S-transferase (GST)-linked full-length human Syk protein; purchased Carna Biosciences; host or cells: Baculovirus expression system
Method in brief: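 Phosphotyrosine on a biotin-peptide substrate (0.5 μM) was read by time-resolved fluorescence at 615 and 665 nm with Eu-anti-pTyr antibody and APC-streptavidin after 1 h EDTA stop.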

[2] = tested on: THP-1 cells (phagocytosis of opsonized Escherichia coli); experiment: Antibody-dependent phagocytosis assay; assay type: cell-based; conditions: Homo sapiens; IFNγ differentiated THP-1 cells, opsonized pHrodo Escherichia coli, 3 hours; read-out: IC50 upon phagocytosis inhibition
Method: THP-1 cells (2×10^5 cells/ml), which were human monocytoid cells, were cultured in the presence of 10 ng/ml IFNγ for 2 days, and they were induced to differentiate into macrophage-like cells. The differentiation-induced THP-1 cells were recovered, and the cells (5×10^4 cells/well) were then allowed to react with a predetermined concentration of test compound at room temperature for 30 minutes. Thereafter, Escherichia coli (Life Technologies) labeled with a pH-sensitive dye (pHrodo) was subjected to opsonization using an anti-Escherichia coli antibody (Life Technologies). Then, the resultant was added to the THP-1 cells obtained above, followed by incubation at 37° C. for 3 hours. Opsonized Escherichia coli and cell-permeable fluorescent dye (Calcein AM) were simultaneously added thereto, followed by quantitative determination of phagocytosis of opsonized Escherichia coli in viable cells using an IN Cell Analyzer.

[3] = tested on: THP-1 cells (TNFα secretion on human IgG-coated plate); experiment: TNFα generation assay; assay type: cell-based; conditions: IFN-γ differentiated THP-1 cells, 7 hours, AlphaLISA, read-out: IC50 of TNFα generation inhibitory activity
Method in brief: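 Secreted TNFα was measured by AlphaLISA after 7 h of culture on human IgG-coated wells (coating at 10 μg/ml), with 5×10^4 cells/well. Before plating, the cells had been treated with compound for 30 min at room temperature. The cells were macrophage-like THP-1, produced by a 2-day exposure to 10 ng/ml IFN-γ.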

IC50 [1] | IC50 [2] | IC50 [3] | SMILES
 | < 1 µM |  | NC[C@@H](Cc1ccccc1)Nc1nc(Nc2ccc(N3CCOCC3)nc2)c(C(N)=O)cc1F [Example 2-420, (R)-6-((1-amino-3-phenylpropan-2-yl)amino)-5-fluoro-2-((6-morpholinopyridin-3-yl)amino)nicotinamide]
< 0.01 µM |  | 0.065 to 0.13 µM | C[C@H](N)[C@H](Nc1nc(Nc2cccc(-n3nccn3)c2)c(C(N)=O)cc1F)C1CC1 [Example 2-479, 2-((3-(2H-1,2,3-triazol-2-yl)phenyl)amino)-6-(((1R,2S)-2-amino-1-cyclopropylpropyl)amino)-5-fluoronicotinamide]
< 0.01 µM |  | 0.065 to 0.13 µM | C[C@H](N)[C@H](Nc1nc(Nc2cccc(-n3ccnn3)c2)c(C(N)=O)cc1F)C1CC1 [Example 2-480, 2-((3-(1H-1,2,3-triazol-1-yl)phenyl)amino)-6-(((1R,2S)-2-amino-1-cyclopropylpropyl)amino)-5-fluoronicotinamide]
< 0.01 µM |  | 0.065 to 0.13 µM | Cc1ccc(Nc2nc(N[C@H](C3CC3)[C@H](C)N)c(F)cc2C(N)=O)cc1C [Example 2-481, 6-(((1R,2S)-2-amino-1-cyclopropylpropyl)amino)-2-((3,4-dimethylphenyl)amino)-5-fluoronicotinamide]
< 0.01 µM |  | 0.065 to 0.13 µM | CC(=O)c1cccc(Nc2nc(N[C@H](C3CC3)[C@H](C)N)c(F)cc2C(N)=O)c1 [Example 2-482, 2-((3-acetylphenyl)amino)-6-(((1R,2S)-2-amino-1-cyclopropylpropyl)amino)-5-fluoronicotinamide]
< 0.01 µM |  | 0.13 to 0.2 µM | CNc1nn(C)c2ccc(Nc3nc(N[C@@H]4CCCC[C@@H]4N)c(F)cc3C(N)=O)cc12 [Example 2-496, 6-(((1R,2S)-2-aminocyclohexyl)amino)-5-fluoro-2-((1-methyl-3-(methylamino)-1H-indazol-5-yl)amino)nicotinamide]
< 0.01 µM |  | 0.065 to 0.13 µM | C[C@H](N)[C@H](Nc1nc(Nc2cnc(N3CCOCC3)c(F)c2)c(C(N)=O)cc1F)c1cccs1 [Example 2-508, 6-(((1S,2S)-2-amino-1-(thiophen-2-yl)propyl)amino)-5-fluoro-2-((5-fluoro-6-morpholinopyridin-3-yl)amino)nicotinamide]
< 0.01 µM |  | 0.065 to 0.13 µM | CC(=O)c1cc(Nc2nc(N[C@@H]3CCCC[C@@H]3N)c(F)cc2C(N)=O)cnc1C [Example 2-518, 2-((5-acetyl-6-methylpyridin-3-yl)amino)-6-(((1R,2S)-2-aminocyclohexyl)amino)-5-fluoronicotinamide]
< 0.01 µM |  | 0.13 to 0.2 µM | Cc1cnn(-c2cncc(Nc3nc(N[C@H](C4CC4)[C@H](C)N)c(F)cc3C(N)=O)c2)c1 [Example 2-519, 6-(((1R,2S)-2-amino-1-cyclopropylpropyl)amino)-5-fluoro-2-((5-(4-methyl-1H-pyrazol-1-yl)pyridin-3-yl)amino)nicotinamide]
0.01 to 0.05 µM |  | 0.065 to 0.13 µM | CC[C@@H](Nc1nc(Nc2cncc(-n3cc(C)cn3)c2)c(C(N)=O)cc1F)[C@H](C)N [Example 2-521, 6-(((2S,3R)-2-aminopentan-3-yl)amino)-5-fluoro-2-((5-(4-methyl-1H-pyrazol-1-yl)pyridin-3-yl)amino)nicotinamide]
0.01 to 0.05 µM |  | 0.13 to 0.2 µM | CC[C@@H](Nc1nc(Nc2cncc(-n3cc(Cl)cn3)c2)c(C(N)=O)cc1F)[C@H](C)N [Example 2-522, 6-(((2S,3R)-2-aminopentan-3-yl)amino)-2-((5-(4-chloro-1H-pyrazol-1-yl)pyridin-3-yl)amino)-5-fluoronicotinamide]
< 0.01 µM |  | 0.13 to 0.2 µM | COCCn1nc(OC)c2cc(Nc3nc(N[C@H](C4CC4)[C@H](C)N)c(F)cc3C(N)=O)ccc21 [Example 2-539]
< 0.01 µM |  | 0.13 to 0.2 µM | CC[C@H](N)[C@H](Nc1nc(Nc2cccc3c2cnn3C)c(C(N)=O)cc1F)C1CC1 [Example 2-546, 6-(((1R,2S)-2-amino-1-cyclopropylbutyl)amino)-5-fluoro-2-((1-methyl-1H-indazol-4-yl)amino)nicotinamide]

Further lines, the compound ahead of its results:

SMILES | IC50 [1] | IC50 [2] | IC50 [3]
CN(C)c1c2cc(Nc3nc(N[C@@H]4CCCC[C@@H]4N)c(F)cc3C(N)=O)ccc2nn1C [Example 2-13, 6-(((1R,2S)-2-aminocyclohexyl)amino)-2-((3-(dimethylamino)-2-methyl-2H-indazol-5-yl)amino)-5-fluoronicotinamide] | < 0.01 µM | < 1 µM | 
CCn1nc(OC)c2cc(Nc3nc(N[C@H](CC4CC4)[C@H](C)N)c(F)cc3C(N)=O)ccc21 [Example 2-50, 6-(((2R,3S)-3-amino-1-cyclopropylbutan-2-yl)amino)-2-((1-ethyl-3-methoxy-1H-indazol-5-yl)amino)-5-fluoronicotinamide] | < 0.01 µM | < 1 µM | 
CC[C@H](N)[C@@H](CC)Nc1nc(Nc2ccc3c(c2)c(OC)nn3C)c(C(N)=O)cc1F [Example 2-85, 6-(((3R,4S)-4-aminohexan-3-yl)amino)-5-fluoro-2-((3-methoxy-1-methyl-1H-indazol-5-yl)amino)nicotinamide] | 0.01 to 0.05 µM | < 1 µM | 
COc1ncc(Nc2nc(N[C@H](C3CC3)[C@H](C)N)c(F)cc2C(N)=O)cc1-n1nccn1 [Example 2-113, 6-(((1R,2S)-2-amino-1-cyclopropylpropyl)amino)-5-fluoro-2-((6-methoxy-5-(2H-1,2,3-triazol-2-yl)pyridin-3-yl)amino)nicotinamide] | 0.01 to 0.05 µM | 1 to 3 µM | 
COCCOc1ncc(Nc2nc(N[C@H](C3CCC3)[C@H](C)N)c(F)cc2C(N)=O)cc1F [Example 2-116, 6-(((1R,2S)-2-amino-1-cyclobutylpropyl)amino)-5-fluoro-2-((5-fluoro-6-(2-methoxyethoxy)pyridin-3-yl)amino)nicotinamide] | 0.01 to 0.05 µM | 1 to 3 µM | 
COCCn1nc(OC)c2cc(Nc3nc(N[C@@H](CN)CC(C)C)c(F)cc3C(N)=O)ccc21 [Example 2-124, (R)-6-((1-amino-4-methylpentan-2-yl)amino)-5-fluoro-2-((3-methoxy-1-(2-methoxyethyl)-1H-indazol-5-yl)amino)nicotinamide] | < 0.01 µM | < 1 µM | 
COCCn1nc(OC)c2cc(Nc3nc(N[C@H](COC)[C@H](C)N)c(F)cc3C(N)=O)ccc21 [Example 2-128, 6-(((2S,3S)-3-amino-1-methoxybutan-2-yl)amino)-5-fluoro-2-((3-methoxy-1-(2-methoxyethyl)-1H-indazol-5-yl)amino)nicotinamide] | 0.01 to 0.05 µM | 1 to 3 µM | 
COc1nn(C)c2c(F)cc(Nc3nc(N[C@H](C4CCC4)[C@H](C)N)c(F)cc3C(N)=O)cc12 [Example 2-158, 6-(((1R,2S)-2-amino-1-cyclobutylpropyl)amino)-5-fluoro-2-((7-fluoro-3-methoxy-1-methyl-1H-indazol-5-yl)amino)nicotinamide] | < 0.01 µM | < 1 µM | 
CCOc1ncc(Nc2nc(N[C@H](C3CC3)[C@H](C)N)c(F)cc2C(N)=O)cc1-n1ccnn1 [Example 2-163, 6-(((1R,2S)-2-amino-1-cyclopropylpropyl)amino)-2-((6-ethoxy-5-(1H-1,2,3-triazol-1-yl)pyridin-3-yl)amino)-5-fluoronicotinamide] | 0.01 to 0.05 µM | 1 to 3 µM | 
COc1ncc(Nc2nc(N[C@H](C3CCC3)[C@H](C)N)c(F)cc2C(N)=O)cc1-n1ccnn1 [Example 2-166, 6-(((1R,2S)-2-amino-1-cyclobutylpropyl)amino)-5-fluoro-2-((6-methoxy-5-(1H-1,2,3-triazol-1-yl)pyridin-3-yl)amino)nicotinamide] | 0.01 to 0.05 µM | 1 to 3 µM | 
Cn1nc(OC(F)F)c2cc(Nc3nc(N[C@@H]4CCCC[C@@H]4N)c(F)cc3C(N)=O)ccc21 [Example 2-169, 6-(((1R,2S)-2-aminocyclohexyl)amino)-2-((3-(difluoromethoxy)-1-methyl-1H-indazol-5-yl)amino)-5-fluoronicotinamide] | < 0.01 µM | < 1 µM | 
COCCn1nc(OC(F)F)c2cc(Nc3nc(N[C@H](COC)[C@H](C)N)c(F)cc3C(N)=O)ccc21 [Example 2-178, 6-(((2S,3S)-3-amino-1-methoxybutan-2-yl)amino)-2-((3-(difluoromethoxy)-1-(2-methoxyethyl)-1H-indazol-5-yl)amino)-5-fluoronicotinamide] | < 0.01 µM | 1 to 3 µM | 
CC[C@H](N)[C@@H](C)Nc1nc(Nc2cc(F)c3c(c2)c(N(C)C)nn3C)c(C(N)=O)cc1F [Example 2-194, 6-(((2R,3S)-3-aminopentan-2-yl)amino)-2-((3-(dimethylamino)-7-fluoro-1-methyl-1H-indazol-5-yl)amino)-5-fluoronicotinamide] | < 0.01 µM | 1 to 3 µM | 
